US6713051B2, “Antiperspirant or deodorant compositions” (Unilever Home & Personal Care USA division of Conopco, Inc., priority 2001, dated 2004)

Key:
[1] = system: skin organotypic cultures (Epiderm); assay: Viability of skin organotypic cultures (MTT assay); assay type: cell-based
Method: (§1) The cultures were then incubated at 37° C., 5% CO2, and 95% relative humidity (standard cell culture conditions) for 24 h. The culture medium was assayed for the pro-inflammatory cytokine interleukin-6 (IL-6) and after washing to remove the AP formulation, the viability of the culture was determined using the Thiazoyl blue (MTT) assay (Mosmann, T. J. Immunol. Methods 65, p55 (1983). IL-6 was determined using an Immunoassay (Quantikine, R&D systems).
In this Example, skin organotypic cultures (Epiderm™, MatTek, USA) were treated topically with the above-identified AP formulation and the trans-10-cis-12 conjugated linoleic acid (TC CLA) was introduced into the medium. The cultures were then incubated at 37° C., 5% CO2, and 95% relative humidity (standard cell culture conditions) for 24 h. The culture medium was assayed for the pro-inflammatory cytokine interleukin-6 (IL-6) and after washing to remove the AP formulation, the viability of the culture was determined by the method described in Example 2.
as §1, with “hours.” for “h.”, “MTT assay.” for “Thiazoyl blue (MTT) assay (Mosmann, T. J. Immunol. Methods 65, p55 (1983).”, “ELISA assay (R&D” for “Immunoassay (Quantikine, R&D”

[2] = system: Human foreskin keratinocytes; assay: Keratinocyte proliferation analysis (DNA content per well, Pico Green); assay type: cell-based; details: for DNA: 4 days, control (0 μM) 3.5
Method: Human foreskin keratinocytes (passage 3) were seeded at 4000 cells/well in 96 well plates in Keratinocyte Growth Medium (abbreviated to KGM) containing 0.03 mM calcium and grown for 3 days at 37° C. The cells were then treated with PPAR ligands in KGM containing 0.03 mM calcium for 4 days prior to harvest. Stock solutions of PPAR ligands were dissolved in dimethylsulphoxide (DMSO) and diluted in KGM before adding to the cells. […] The harvested cells were washed 3× in phosphate buffered saline (PBS) and extracted in 1% Triton X100, 50 mM (tris[hydroxymethyl]aminomethane) (Tris) pH 8.0 plus protease inhibitors pepstatin and leupeptin (100 μl/well). The extract was assayed for DNA content using the Pico Green DNA assay (Molecular Probes, Inc.).
Cultured keratinocytes were treated with cis-9-trans-11 conjugated linoleic acid (CT-CLA) for 4 days. The cells were extracted with Tris-1% Triton X100 and the DNA content per well was determine by the Pico Green assay in accordance with the above described procedure.

SMILES: CC\C=C/C=C/C=C/C=C\CCCCCCCC(=O)O [cis parinaric acid, cis-parinaric acid]
- Culture viability [1]: not significantly different
- keratinocyte DNA synthesis activity, statement ([2]; Example 12: 10 and 20 μM, 1 way ANOVA, p<0.05): significantly reduce
- DNA ([2]; Table 13: 1 μM): 3.3 ng/well
- DNA ([2]; Table 13: 5 μM): 4.1 ng/well
- DNA ([2]; Table 13: 10 μM): 2.6 ng/well
- DNA ([2]; Table 13: 20 μM): 1.5 ng/well
